We go through 20 compounds from PMC6209510 (European journal of medicinal chemistry, 2017).

Tested on in the first data set: not listed separately
Nature of the data set: Cytotoxicity assay on Vero cells. It is filed as cell-based, African green monkey. As to conditions: African green monkey, Vero cells (mammalian kidney fibroblasts).
In the case of `c1ccc(CNCCCNCc2ccccc2)cc1` [Compound 1, N1,N3-dibenzylpropane-1,3-diamine], the IC50 (usually the concentration at which inhibition is half-maximal) at 48 h is more than 4.76 µg/mL.

For the compound `COc1ccc(CNCCCNCc2ccc(OC)cc2)cc1` [Compound 7, N1,N3-bis(4-methoxybenzyl)propane-1,3-diamine], the half-inhibitory concentration (IC50) at 48 h is more than 4.76 µg/mL.

`COc1ccc(CNCCCCNCc2ccc(OC)cc2)cc1` [Compound 8, N1,N4-bis(4-methoxybenzyl)butane-1,4-diamine] gave an IC50 at 48 h of more than 4.76 µg/mL.

`COc1ccc(CNCCCCCCNCc2ccc(OC)cc2)cc1` [Compound 9, N1,N6-bis(4-methoxybenzyl)hexane-1,6-diamine] displayed an IC50 at 48 h of 8.32 µM.

`COc1ccc(CNCCCCCCCCNCc2ccc(OC)cc2)cc1` [Compound 10, N1,N8-bis(4-methoxybenzyl)octane-1,8-diamine] yielded an IC50 at 48 h of more than 4.76 µg/mL.

Take `COc1ccc(CNCCCCCCCCCCNCc2ccc(OC)cc2)cc1` [Compound 11, N1,N10-bis(4-methoxybenzyl)decane-1,10-diamine]: the IC50 at 48 h was more than 4.76 µg/mL.

Compound `COc1ccc(CNCCCCCCCCCCCCNCc2ccc(OC)cc2)cc1` [Compound 12, N1,N12-bis(4-methoxybenzyl)dodecane-1,12-diamine] came in with an IC50 at 48 h of more than 4.76 µg/mL.

`COc1ccc(CNCCCNCc2ccc(OC)c(O)c2)cc1O` [Compound 19, 5,5’-((propane-1,3-diylbis(azanediyl))bis(methylene))bis(2-methoxyphenol)]: the IC50 at 48 h was more than 4.76 µg/mL.

Compound `COc1ccc(CNCCCCNCc2ccc(OC)c(O)c2)cc1O` [Compound 20, 5,5’-((butane-1,4-diylbis(azanediyl))bis(methylene))bis(2-methoxyphenol)] returned an IC50 at 48 h of more than 4.76 µg/mL.

Compound `COc1ccc(CNCCCCCCNCc2ccc(OC)c(O)c2)cc1O` [Compound 21, 5,5’-((hexane-1,6-diylbis(azanediyl))bis(methylene))bis(2-methoxyphenol)] registered an IC50 at 48 h of more than 4.76 µg/mL.

On to `COc1ccc(CNCCCCCCCCNCc2ccc(OC)c(O)c2)cc1O` [Compound 22, 5,5’-((octane-1,8-diylbis(azanediyl))bis(methylene))bis(2-methoxyphenol)], for which the half-inhibitory concentration (IC50) at 48 h was more than 4.76 µg/mL.

As for `COc1ccc(CNCCCCCCCCCCNCc2ccc(OC)c(O)c2)cc1O` [Compound 23, 5,5’-((decane-1,10-diylbis(azanediyl))bis(methylene)) bis(2-methoxyphenol)], the IC50 at 48 h is more than 4.76 µg/mL.

With `COc1ccc(CNCCCCCCCCCCCCNCc2ccc(OC)c(O)c2)cc1O` [Compound 24, 5,5’-((dodecane-1,12-diylbis(azanediyl))bis(methylene))bis(2-methoxyphenol)], the half-maximal inhibitory concentration (IC50) at 48 h is more than 4.76 µg/mL.

`COc1cc(CNCCCNCc2ccc(OCc3ccccc3)c(OC)c2)ccc1OCc1ccccc1` [Compound 25, N1,N3-bis(4-(benzyloxy)-3-methoxybenzyl) propane-1,3-diamine] registered a half-inhibitory concentration (IC50) at 48 h of 6.65 µM.

On to `COc1cc(CNCCCCNCc2ccc(OCc3ccccc3)c(OC)c2)ccc1OCc1ccccc1` [Compound 26, N1,N4-bis(4-(benzyloxy)-3-methoxybenzyl) butane-1,4-diamine], for which the IC50 at 48 h is more than 4.76 µg/mL.

As to `COc1cc(CNCCCCCCNCc2ccc(OCc3ccccc3)c(OC)c2)ccc1OCc1ccccc1` [Compound 27, N1,N6-bis(4-(benzyloxy)-3-methoxybenzyl) hexane-1,6-diamine], the 50% inhibitory concentration (IC50) at 48 h was more than 4.76 µg/mL.

In turn, `COc1cc(CNCCCCCCCCCCNCc2ccc(OCc3ccccc3)c(OC)c2)ccc1OCc1ccccc1` [Compound 29, N1,N10-bis(4-(benzyloxy)-3-methoxybenzyl) decane-1,10-diamine] yielded a half-maximal inhibitory concentration (IC50) at 48 h of more than 4.76 µg/mL.

In the case of `COc1cc(CNCCCCCCCCCCCCNCc2ccc(OCc3ccccc3)c(OC)c2)ccc1OCc1ccccc1` [Compound 30, N1,N12-bis(4-(benzyloxy)-3-methoxybenzyl) dodecane-1,12-diamine], the IC50 at 48 h is more than 4.76 µg/mL.

The subject of the next data set is Vero cells. Put plainly: Cytotoxicity assay on Vero cells. The class given is cell-based, African green monkey. To be noted: 48 h; tested at a maximum concentration of 8 μM; NC = not cytotoxic.
In the case of “N1,N1,N10,N10-tetrakis(4-methoxybenzyl) decane-1,10 diamine [Compound 40]”, the “Cytotoxicity Vero cells IC50” value was “NC (not cytotoxic at the maximum concentration tested (4.46 μg/mL))”.

A further data set deals with human foreskin fibroblast (HFF). Put plainly: Cytotoxicity on fibroblast. It is filed as cell-based. To be noted: no cytotoxicity at 10 μM.
Regarding `COc1cc(CNCCCNCc2ccc(OCc3ccccc3)c(OC)c2)ccc1OCc1ccccc1` [Compound 25, N1,N3-bis(4-(benzyloxy)-3-methoxybenzyl) propane-1,3-diamine], the cytotoxicity on fibroblast is more than 10 µM.

A further data set relates to P. falciparum W2.
Assay: not given
The class given is cell-based. To be noted: Plasmodium falciparum, W2, 48 h, read-out: P. falciparum W2 IC50.
On to `CCN(CC)CCCC(C)Nc1ccnc2cc(Cl)ccc12` (stereo not drawn) [CQ, Chloroquine, reference compound], for which the IC50 came to 0.422 µM.

In another data set the test system is P. falciparum D6.
Assay: not given
It is filed as cell-based, Plasmodium falciparum. To be noted: Plasmodium falciparum, D6, 48 h, read-out: P. falciparum D6 IC50.
`CCN(CC)CCCC(C)Nc1ccnc2cc(Cl)ccc12` (stereo not drawn) [CQ, Chloroquine, reference compound]: the IC50 is 0.083 µM.

The data set is the same for the next values; noted with them: Vero cells vs P. falciparum D6.
For the compound `COc1cc(CNCCCCNCc2ccc(OCc3ccccc3)c(OC)c2)ccc1OCc1ccccc1` [Compound 26, N1,N4-bis(4-(benzyloxy)-3-methoxybenzyl) butane-1,4-diamine], the “SI (Selectivity Index: IC50 Vero Cells/IC50 Parasites), P. falciparum D6” value is more than 27.4.

With `COc1cc(CNCCCCCCNCc2ccc(OCc3ccccc3)c(OC)c2)ccc1OCc1ccccc1` [Compound 27, N1,N6-bis(4-(benzyloxy)-3-methoxybenzyl) hexane-1,6-diamine], the “SI (Selectivity Index: IC50 Vero Cells/IC50 Parasites), P. falciparum D6” value was more than 31.7.
